Laboratory results as given in PubChem BioAssay AID248 (DTP/NCI, 2004).
“And” between values parts separate entries of the source, which are not always exact repeats. Identical values can stand only once. Inconclusive results and toxic doses are left out. Cut-off read from the data, not from the text of the source: active = T/C of 150% or more; inactive = T/C below 125%.

System: L1210 leukemia ip in BDF1 mice, survival T/C
Assay: NCI In Vivo Anticancer Drug Screen. Data for tumor model L1210 Leukemia (intraperitoneal) in B6D2F1 (BDF1) mice
Settings: endpoint: mean survival time, higher = longer survival
Method in brief: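 Read-out is survival time, reported as the treated-group measurement over the vehicle-control measurement.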

[1] = dose: 50.0 mg/kg/injection, schedule: Q01DX009 (ip), vehicle: Klucel (hydroxypropylcellulose) (HPC)
[2] = dose: 100.0 mg/kg/injection, schedule: Q01DX009 (ip), vehicle: Klucel (hydroxypropylcellulose) (HPC)
[3] = dose: 100.0 mg/kg/injection, schedule: Q04DX003 (ip), vehicle: Klucel (hydroxypropylcellulose) (HPC)
[4] = dose: 200.0 mg/kg/injection, schedule: Q01DX009 (ip), vehicle: Klucel (hydroxypropylcellulose) (HPC)
[5] = dose: 200.0 mg/kg/injection, schedule: Q04DX003 (ip), vehicle: Klucel (hydroxypropylcellulose) (HPC)
[6] = dose: 100.0 mg/kg/injection, schedule: Q04DX003 (ip), vehicle: saline with Tween-80
[7] = dose: 200.0 mg/kg/injection, schedule: Q04DX003 (ip), vehicle: saline with Tween-80
[8] = dose: 400.0 mg/kg/injection, schedule: Q04DX003 (ip), vehicle: saline with Tween-80
[9] = dose: 25.0 mg/kg/injection, schedule: Q04DX002 (ip), vehicle: saline with Tween-80
[10] = dose: 50.0 mg/kg/injection, schedule: Q04DX002 (ip), vehicle: saline with Tween-80
[11] = dose: 100.0 mg/kg/injection, schedule: Q01DX009 (ip), vehicle: saline with Tween-80
[12] = dose: 200.0 mg/kg/injection, schedule: Q01DX009 (ip), vehicle: saline with Tween-80
[13] = dose: 100.0 mg/kg/injection, schedule: Q01DX001 (ip), vehicle: saline
[14] = dose: 200.0 mg/kg/injection, schedule: Q01DX001 (ip), vehicle: saline
[15] = dose: 400.0 mg/kg/injection, schedule: Q01DX001 (ip), vehicle: saline

Measured: T/C

COc1ccc(C)cc1NC(=S)NC(=O)c1cccc2ccccc12
inactive: [1] 93 % of control | [2] 87 % of control | [3] 95 % of control | [4] 88 % of control | [5] 94 % of control | dose: 300.0 mg/kg/injection, schedule: Q01DX009 (ip), vehicle: Klucel (hydroxypropylcellulose) (HPC) 104 % of control and 87 % of control

CC1(C)NC(=O)NC(=O)C1Br (centres undefined)
inactive: dose: 100.0 mg/kg/injection, schedule: Q01DX Z (ip), vehicle: methylcellulose (MC) 96 % of control

c1ccc(-c2cc(-c3ccccc3)[nH]n2)cc1
inactive: [6] 100 % of control | [7] 110 % of control | [8] 105 % of control

CCC(C)Nc1ccc(NS(=O)(=O)CCl)cc1 (centres undefined)
inactive: [9] 97 % of control | [10] 106 % of control | dose: 100.0 mg/kg/injection, schedule: Q04DX002 (ip), vehicle: saline with Tween-80 100 % of control

O=Cc1ccc(C(=O)O)cc1O
inactive: [6] 98 % of control | [7] 102 % of control

Cc1ccccc1-n1c(O)c(N=Nc2ccc(Cl)cc2)c(=O)n(-c2ccccc2)c1=S
inactive: dose: 100.0 mg/kg/injection, schedule: Q01DX001 (ip), vehicle: Klucel (hydroxypropylcellulose) (HPC) 87 % of control | dose: 200.0 mg/kg/injection, schedule: Q01DX001 (ip), vehicle: Klucel (hydroxypropylcellulose) (HPC) 109 % of control

O=C(Nc1ccccc1F)Oc1cccc2ccccc12
inactive: [11] 113 % of control | [12] 109 % of control | dose: 400.0 mg/kg/injection, schedule: Q01DX009 (ip), vehicle: saline with Tween-80 87 % of control

COc1cccc(C(=O)O)c1OC
inactive: dose: 100.0 mg/kg/injection, schedule: Q04DX003 (ip), vehicle: saline sonified 95 % of control | dose: 200.0 mg/kg/injection, schedule: Q04DX003 (ip), vehicle: saline sonified 95 % of control | dose: 400.0 mg/kg/injection, schedule: Q04DX003 (ip), vehicle: saline sonified 97 % of control

Cc1nc([N+](=O)[O-])cn1CCN1CCOCC1
inactive: [1] 102 % of control | [2] 94 % of control | dose: 100.0 mg/kg/injection, schedule: Q04DX002 (ip), vehicle: Klucel (hydroxypropylcellulose) (HPC) 92 % of control | [4] 102 % of control | dose: 200.0 mg/kg/injection, schedule: Q04DX002 (ip), vehicle: Klucel (hydroxypropylcellulose) (HPC) 105 % of control | dose: 400.0 mg/kg/injection, schedule: Q04DX002 (ip), vehicle: Klucel (hydroxypropylcellulose) (HPC) 105 % of control

CN(C)CCCn1c(=O)c2ccccc2c2ccccc21
inactive: dose: 50.0 mg/kg/injection, schedule: Q01DX001 (ip), vehicle: saline 101 % of control | dose: 50.0 mg/kg/injection, schedule: Q01DX015 (ip), vehicle: saline 98 % of control | [13] 103 % of control | dose: 100.0 mg/kg/injection, schedule: Q01DX015 (ip), vehicle: saline 108 % of control

S=c1[nH]c2ccccc2n1CCc1ccncc1
inactive: [13] 100 % of control | [14] 97 % of control | [15] 95 % of control

C=C(C(=C)C(=O)O)C(=O)O
inactive: [13] 101 % of control | dose: 100.0 mg/kg/injection, schedule: Q01DX009 (ip), vehicle: saline 98 % of control | [14] 101 % of control | dose: 200.0 mg/kg/injection, schedule: Q01DX009 (ip), vehicle: saline 107 % of control | [15] 98 % of control | dose: 400.0 mg/kg/injection, schedule: Q01DX009 (ip), vehicle: saline 102 % of control

CC(=O)Oc1cc2c3c(c1)-c1c(ccc(OC(C)=O)c1OC(C)=O)CC3NCC2 (centres undefined)
inactive: dose: 3.13 mg/kg/injection, schedule: Q04DX003 (ip), vehicle: DMSO 93 % of control | dose: 6.25 mg/kg/injection, schedule: Q04DX003 (ip), vehicle: DMSO 93 % of control | dose: 12.5 mg/kg/injection, schedule: Q04DX003 (ip), vehicle: DMSO 93 % of control | dose: 25.0 mg/kg/injection, schedule: Q04DX003 (ip), vehicle: DMSO 98 % of control | dose: 50.0 mg/kg/injection, schedule: Q04DX003 (ip), vehicle: DMSO 87 % of control

Cc1cc(N)c(C)c(C)c1O
inactive: dose: 12.5 mg/kg/injection, schedule: Q04DX003 (ip), vehicle: saline with Tween-80 94 % of control | dose: 25.0 mg/kg/injection, schedule: Q04DX003 (ip), vehicle: saline with Tween-80 94 % of control | dose: 50.0 mg/kg/injection, schedule: Q04DX003 (ip), vehicle: saline with Tween-80 94 % of control | [6] 101 % of control

CSc1ccc(NC(=O)Nc2cc(C)ccc2Cl)cc1
inactive: [2] 86 % of control | [4] 93 % of control | dose: 400.0 mg/kg/injection, schedule: Q01DX009 (ip), vehicle: Klucel (hydroxypropylcellulose) (HPC) 88 % of control

CCOC(=O)CCC(I)C(=O)OCC (centres undefined)
inactive: dose: 3.75 mg/kg/injection, schedule: Q01DX010 (ip), vehicle: saline 98 % of control | dose: 15.0 mg/kg/injection, schedule: Q01DX010 (ip), vehicle: saline 90 % of control

COc1ccc(/C=C/C(=O)c2cc(C(=O)O)c(OC)cc2OC)cc1OC
inactive: dose: 12.5 mg/kg/injection, schedule: Q01DX009 (ip), vehicle: saline with Tween-80 111 % of control | dose: 25.0 mg/kg/injection, schedule: Q01DX009 (ip), vehicle: saline with Tween-80 93 % of control | dose: 50.0 mg/kg/injection, schedule: Q01DX009 (ip), vehicle: saline with Tween-80 98 % of control | [11] 98 % of control | [12] 95 % of control

COc1ccc(NC2=CC(=O)N(c3ccc(OC)cc3)C2=O)cc1
inactive: dose: 100.0 mg/kg/injection, schedule: Q04DX003 (ip), vehicle: other 86 % of control | dose: 200.0 mg/kg/injection, schedule: Q04DX003 (ip), vehicle: other 98 % of control | dose: 400.0 mg/kg/injection, schedule: Q04DX003 (ip), vehicle: other 98 % of control

COc1c2c(c(OC)c3c1C(=O)c1ccccc1C3=O)CC(C(C)=O)CC2 (centres undefined)
inactive: [6] 94 % of control | [7] 92 % of control | [8] 92 % of control

COc1ccccc1OS(=O)(=O)c1ccc(C)cc1
inactive: dose: 50.0 mg/kg/injection, schedule: Q04DX003 (ip), vehicle: Klucel (hydroxypropylcellulose) (HPC) 105 % of control | [3] 104 % of control | [5] 105 % of control

CC1(C)C2CCC1(C)C(OC(=O)C1OC(O)C(O)C(O)C1O)C2 (centres undefined)
inactive: [6] 102 % of control | [7] 104 % of control | [8] 102 % of control

CCCCCCCCC(Br)C(Br)CCCCCCCC(=O)O (centres undefined)
inactive: [9] 93 % of control | [10] 96 % of control

O=C(O)C12CCC(CC1)CC2
inactive: dose: 75.0 mg/kg/injection, schedule: Q01DX009 (ip), vehicle: saline 100 % of control | [13] 93 % of control | dose: 150.0 mg/kg/injection, schedule: Q01DX009 (ip), vehicle: saline 103 % of control | [14] 88 % of control | dose: 300.0 mg/kg/injection, schedule: Q01DX009 (ip), vehicle: saline 100 % of control | [15] 90 % of control

OC1CC2C=C(c3ccccc3)C1C2 (centres undefined)
inactive: [6] 96 % of control | [7] 93 % of control | [8] 88 % of control
